# Laboratory results reported in patent publication US9839632B2, “Methods and compositions using 4-amino-2-(2,6-dioxo-piperidine-3-yl)-isoindoline-1,3-dione for treatment and management of central nervous system cancers” (CELGENE CORPORATION, priority 2013, dated 2017).
# Like-named read-outs stand apart in the source and are kept apart here.
# Experiments:
# [1] = tested on: OCI-LY10 B lymphoma cells; assay: Orthotopic murine CNS lymphoma model, OCI-LY10 (bioluminescence tumor growth, survival); type: in vivo, athymic mice; conditions: for median survival: OCI-LY10 model; for in vivo tumor growth (luminescence signal) vs control: P<0.05, n=8
# Protocol: Animal and housing: Female athymic mice (8-10 weeks old and weighing 20-25 g at the beginning of the study) were purchased from Harlan laboratories. They were housed in a temperature-controlled sterilized room (23±2° C.) with a 12-h light/dark cycle and free access to food and water throughout the study. Animal use was approved by Mayo Foundation Institutional Animal Use and Care Committee and was in accordance with NIH Guide for the Care and Use of Laboratory Animals.
# Orthotopic murine CNS lymphoma models: Two murine CNS lymphoma models were created by intracerebral injection of 2.5×10^4 luciferase-transfected Raji or 1×10^5 luciferase-transfected OCI-LY10 B lymphoma cells in athymic mice under anesthesia using a stereotactic platform. Eight-week-old athymic mice underwent minimum 7-day acclimation/quarantine prior to surgery. Surgery was performed in a laminar flow hood under sterile conditions. Tylenol 300 mg/kg PO was given for analgesia 24 hours before the surgery continuing 48 hours postoperatively. Anesthesia was achieved by inhalation of 1-2% isoflurane. After the mouse became well anesthetized, it was placed in the Kopf stereotactic instrument. A small amount of BNP antibiotic cream (a mixture of Bacitracin, Neomycin and Polymyxin) was smeared on its eyes to prevent infection and corneal damage during surgery. A strip of soft fabric was placed over the mouse's body and tail to prevent excessive heat loss during surgery. The scalp area was cleaned with a 2% solution of Betadine and dried with cotton tipped applicator. A midline sagittal incision was made in the scalp. A small burr hole was drilled in the left skull with a surgical drill (Kopf) or a Dremel drill according to the coordinates (AP: 0.5 mm, LM: 2.5 mm) as determined by reference to the mouse brain atlas by Franklin and Paxinos. Paxinos, 2001. The dura mater was surgically exposed, and a 10 μl-Hamilton syringe with a 26S-gauge beveled needle was lowered into the left cerebral hemisphere up to the depth of 3 mm and 5 μl of tumor cells was slowly infused (0.5 μl/min). The needle was left in place for 5 minutes to prevent reflux and then was slowly removed. The skin was closed with wound clips. The mice recovered from anesthesia and surgery in a warm environment and were not returned to their cages until motor activity returned. Cages were placed on top of a heating pad to minimize the loss of body heat during the recovery. The mice were monitored postoperatively at least twice a day for 5 days or until recovery was complete.
# Bioluminescence imaging of mouse: After intracerebral injection of lymphoma cells, all the mice were subjected to bioluminesence imaging (“BLI”) twice a week starting at day-4 post-intracerebral injection to monitor the real-time in vivo tumor growth. BLI was conducted using a Xenogen Lumina optical imaging system (Caliper Life Sciences, Hopkinton, Mass.). Mice were anesthetized with isofluorane before intraperitoneal injections of luciferin at a dose of 150 mg/kg, providing a saturating substrate concentration for luciferase enzyme. Peak luminescent signals were recorded 10 minutes after luciferin injection. Regions of interest encompassing the intracranial area of signal were defined using Living Image software (Xenogen), and the total photons/s/steradian/cm^2 was recorded.
# In vivo preclinical evaluation of 4-amino-2-(2,6-dioxo-piperidine-3-yl)-isoindoline-1,3-dione in murine CNS lymphoma models: Mice were imaged 4 days after intracerebral injection and were distributed among different treatment groups with equivalent average BLI signal. Real time tumor growth was monitored by BLI. Tumor growth and survival data were analyzed for statistical difference between the groups. Mice were assigned to four experimental groups and one vehicle control group in Raji model. Mice in experimental groups received 4-amino-2-(2,6-dioxo-piperidine-3-yl)-isoindoline-1,3-dione 0.3 mg/kg, 3 mg/kg, 10 mg/kg, or 30 mg/kg by oral gavage daily for 28 days. […]
# [2] = tested on: macrophages and NK cells in the CNS lymphoma microenvironment; assay: Immunohistochemistry/immunofluorescence of CNS lymphoma microenvironment, OCI-LY10 model; type: in vivo, athymic mice; conditions: P<0.05 vs control
# Text: Immunohistochemistry (“IHC”) assessment for macrophages: Paraffin sections (10 μm thick) were fixed, blocked, and immunostained with the appropriate antibody: Iba-1 (BD Biosciences) for macrophages, Ym1 (Stemcell Technologies) as a marker for M2 polarization, iNOS (Calbiochem) as a marker for M1 polarization. Aperio ScanScope XT slide scanner and image analysis system (Aperio Spectrum, Vista, Calif.) were used for quantitative assessment of macrophages. Three equal-size (0.4 mM2) fields in macrophage-dense areas were selected in the contralateral brain and the tumor for counting. Data were shown as an average of the three fields.
# Immunofluorescence for natural killer cells: Frozen sections (10 μm thick) were permeabilized with PBS-0.2% Triton X-100 for 5 min. After blocking with PBS-5% goat serum-0.02% Triton X-100 for 45 mins at 37° C., the sections were incubated overnight at 4° C. with Rat monoclonal CD335 antibody (a marker for NK cells, 1:200, Biolegend). After washing, sections were incubated with the Alexa Fluor 594 Goat anti-Rat IgG secondary antibody (1:1000, Life Technologies) at 37° C. for 1.5 h. Finally, Vectashield H-1200 mounting medium with DAPI (Vector Laboratories) was used to stain the nuclei. Images were obtained on a Zeiss LSM 510 META confocal microscope. Six equal-size (0.2 mM^2) fields in NK-dense areas were selected in the tumor for taking pictures. Fluorescence intensity data were generated by Zeiss LSM 510 and shown as an average of six fields.
# Statistical analysis: One-way ANOVA was used to compare the difference between the groups at each time point. Two-way repeated measures ANOVA was used to analyze the interaction between the time and treatment. Survival analysis was performed by Kaplan Meier method. Kaplan Meier survival curves were generated using Prism4 software and the statistical difference between curves was derived with a log-rank test. P<0.05 was considered significant.
# [3] = fasted male CD-IGS rats, cited from earlier work; for F: PO 50 mg/kg vs IV 5 mg/kg
# [4] = listed as 4-amino-2-(2,6-dioxo-piperidine-3-yl)-isoindoline-1,3-dione
compound,measurement,setting,value
"Nc1cccc2c1C(=O)N(C1CCC(=O)NC1=O)C2=O (stereo not shown) [Pomalidomide, 4-amino-2-(2,6-dioxo-piperidine-3-yl)-isoindoline-1,3-dione]",median survival,[1]; 3 mg/kg oral gavage daily for 28 days,32 days
same,median survival,[1]; 10 mg/kg oral gavage daily for 28 days,37 days
same,median survival,[1]; 30 mg/kg oral gavage daily for 28 days,40 days
same,in vivo tumor growth (luminescence signal) vs control,"[1]; OCI-LY10 model, 3, 10 and 30 mg/kg groups",significantly slower
same,in vivo tumor growth (luminescence signal) vs control,"[1]; OCI-LY10 model, 3, 10 and 30 mg/kg groups, listed as 4-amino-2-(2,6-dioxo-piperidine-3-yl)-isoindoline-1,3-dione",reduction of tumor growth
same,"survival, Kaplan-Meier analysis vs control","[1]; OCI-LY10 model, 3, 10 and 30 mg/kg groups, p<0.05, n=8",prolongation of survival
same,CD335 positive NK cells in CNS tumors,[2],significantly increased
same,Ym1 expression (M2-polarized macrophages) in tumor,[2],significantly decreased
same,iNOS activity (M1-polarized macrophages) in tumor,[2],increased
same,CD335 positive NK cells in CNS tumors,[2]; [4],significant increase
same,Ym1 expression (M2-polarized macrophages) in tumor,[2]; [4],significant decrease
same,iNOS activity (M1-polarized macrophages) in tumor,[2]; [4],significant increase
same,brain macrophages (Iba-1 positive cells),[2]; contralateral brain and tumor,significantly increased
same,F,[3],47.4%
same,F,[3]; listed as CC-4047,47.4 ± 15.2%
same,AUC(0-inf),"[3]; single IV 5 mg/kg, n = 5",7016 ± 1551 ng·h/mL
same,CL,"[3]; single IV 5 mg/kg, n = 5",12.3 mL/min/kg
same,T1/2,"[3]; single IV 5 mg/kg, n = 5",2.44 ± 0.8 h
same,Vss,"[3]; single IV 5 mg/kg, n = 5",1.75 L/kg
same,AUC(0-24),"[3]; single PO 50 mg/kg, n = 4",33155 ± 8561 ng·h/mL
same,Cmax,"[3]; single PO 50 mg/kg, n = 4",3372 ± 758 ng/mL
same,Tmax,"[3]; single PO 50 mg/kg, n = 4",2.0 ± 0.0 h
